Data from ChEMBL document CHEMBL4422697, “Structural Characterization of Cranberry Arabinoxyloglucan Oligosaccharides” (J Nat Prod, 2019).
The source made the active and inactive calls. The calls are words filed in the database; no cut-off is given here.

Experiments:
Cryptococcus neoformans = assay: Growth inhibition of Cryptococcus neoformans ATCC 90113 at 50 ug/ml relative to control; assay type: organism-based; details: in vivo
Aspergillus fumigatus = assay: Growth inhibition of Aspergillus fumigatus ATCC 204305 at 50 ug/ml relative to control; assay type: organism-based; details: in vivo
Escherichia coli [1] = assay: Growth inhibition of Escherichia coli ATCC 35218 at 50 ug/ml relative to control; assay type: organism-based; details: in vivo
Pseudomonas aeruginosa = assay: Growth inhibition of Pseudomonas aeruginosa ATCC 27853 at 50 ug/ml relative to control; assay type: organism-based; details: in vivo
MDA-MB-231 = assay: Cytotoxicity against human MDA-MB-231 cells assessed as reduction in cell viability at 10 to 100 uM after 48 hrs by sulforhodamine B assay; assay type: cell-based; details: mda-mb-231, 48 h
Escherichia coli [2] = assay: Antiadhesive activity against P-fimbriated Escherichia coli ATCC 700928 assessed as inhibition of bacterial adhesion to human HTB4 cells incubated for 30 mins in presence of [3H]uridine prior to infection measured after 1 hr by scintillation counting method; assay type: functional, organism-based
Leishmania donovani = assay: Growth inhibition of Leishmania donovani at 80 ug/ml relative to control; assay type: organism-based; details: in vivo
T47D = assay: Cytotoxicity against human T47D cells assessed as reduction in cell viability at 10 to 100 uM after 48 hrs by sulforhodamine B assay; assay type: cell-based
Plasmodium falciparum = assay: Growth inhibition of Plasmodium falciparum D6 at 15.9 ug/ml relative to control; assay type: organism-based; details: in vivo
Staphylococcus aureus [3] = assay: Growth inhibition of Staphylococcus aureus ATCC 29213 at 50 ug/ml relative to control; assay type: organism-based; details: in vivo
Pichia kudriavzevii = assay: Growth inhibition of Candida krusei ATCC 6258 at 50 ug/ml relative to control; assay type: organism-based; details: in vivo
Candida albicans = assay: Growth inhibition of Candida albicans ATCC 90028 at 50 ug/ml relative to control; assay type: organism-based; details: in vivo
Staphylococcus aureus [4] = assay: Growth inhibition of methicillin-[…] Staphylococcus aureus ATCC 33591 at 50 ug/ml relative to control; assay type: organism-based; details: in vivo
Nakaseomyces glabratus = assay: Growth inhibition of Candida glabrata ATCC 90030 at 50 ug/ml relative to control; assay type: organism-based; details: in vivo
[5] = tested on: Mycobacterium intracellulare; assay: Growth inhibition of Mycobacterium intracellulare ATCC 23068 at 50 ug/ml relative to control; assay type: organism-based; details: in vivo

OC[C@@H]1O[C@@H](O[C@H]2[C@@H](OC[C@H]3O[C@@H](O)[C@H](O)[C@@H](O)[C@@H]3O[C@@H]3O[C@H](CO)[C@@H](O[C@@H]4O[C@H](COC5OC[C@@H](O)[C@H](O)[C@H]5O[C@@H]5O[C@@H](CO)[C@H](O)[C@H]5O)[C@@H](O[C@@H]5O[C@H](CO)[C@@H](O)[C@H](O)[C@H]5O)[C@H](O)[C@H]4O)[C@H](O)[C@H]3O)OC[C@@H](O)[C@@H]2O)[C@H](O)[C@H]1O (single isomer, unassigned)
growth inhibition (GI) (Cryptococcus neoformans): < 50% | growth inhibition (GI) (Aspergillus fumigatus): < 50% | growth inhibition (GI) (Escherichia coli [1]): < 50% | growth inhibition (GI) (Pseudomonas aeruginosa): < 50% | Activity (MDA-MB-231): Non-Toxic | inhibition (Escherichia coli [2]): inactive | growth inhibition (GI) (Leishmania donovani): < 50% | Activity (T47D): Non-Toxic | growth inhibition (GI) (Plasmodium falciparum): < 50% | growth inhibition (GI) (Staphylococcus aureus [3]): < 50% | growth inhibition (GI) (Pichia kudriavzevii): < 50% | growth inhibition (GI) (Candida albicans): < 50% | growth inhibition (GI) (Staphylococcus aureus [4]): < 50% | growth inhibition (GI) (Nakaseomyces glabratus): < 50% | growth inhibition (GI) [5]: < 50%

OC[C@@H]1O[C@@H](O[C@H]2[C@@H](OC[C@H]3O[C@@H](O)[C@H](O)[C@@H](O)[C@@H]3O[C@@H]3O[C@H](CO)[C@@H](O[C@@H]4O[C@H](COC5OC[C@@H](O)[C@H](O)[C@H]5O)[C@@H](O[C@@H]5O[C@H](CO)[C@@H](O)[C@H](O)[C@H]5O)[C@H](O)[C@H]4O)[C@H](O)[C@H]3O)OC[C@@H](O)[C@@H]2O)[C@H](O)[C@H]1O (single isomer, unassigned)
growth inhibition (GI) (Cryptococcus neoformans): < 50% | growth inhibition (GI) (Aspergillus fumigatus): < 50% | growth inhibition (GI) (Escherichia coli [1]): < 50% | growth inhibition (GI) (Pseudomonas aeruginosa): < 50% | Activity (MDA-MB-231): Non-Toxic | inhibition (Escherichia coli [2]): inactive | growth inhibition (GI) (Leishmania donovani): < 50% | Activity (T47D): Non-Toxic | growth inhibition (GI) (Plasmodium falciparum): < 50% | growth inhibition (GI) (Staphylococcus aureus [3]): < 50% | growth inhibition (GI) (Pichia kudriavzevii): < 50% | growth inhibition (GI) (Candida albicans): < 50% | growth inhibition (GI) (Staphylococcus aureus [4]): < 50% | growth inhibition (GI) (Nakaseomyces glabratus): < 50% | growth inhibition (GI) [5]: < 50%
